This assay addresses T1, human oxytocin receptor (Homo sapiens, UniProt P30559).
T1 construct: host or cells: CHO cells (pcDNA3.1 vector)
T1 sequence (P30559 1-389): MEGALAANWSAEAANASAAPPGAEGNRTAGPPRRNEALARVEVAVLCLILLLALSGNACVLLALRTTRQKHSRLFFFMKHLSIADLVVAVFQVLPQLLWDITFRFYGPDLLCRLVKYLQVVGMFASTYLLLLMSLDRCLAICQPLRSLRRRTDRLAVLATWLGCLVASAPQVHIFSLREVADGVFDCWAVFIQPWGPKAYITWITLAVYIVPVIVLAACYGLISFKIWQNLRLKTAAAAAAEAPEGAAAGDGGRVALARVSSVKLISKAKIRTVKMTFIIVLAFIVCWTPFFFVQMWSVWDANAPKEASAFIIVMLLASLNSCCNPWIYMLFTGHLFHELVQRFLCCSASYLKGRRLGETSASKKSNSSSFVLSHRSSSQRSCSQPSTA
The assay is described as follows: Oxytocin binding in Chinese Hamster Ovary cell membranes expressing human oxytocin receptors. The following applies: 100 nM, CHO cell membranes, [3H]oxytocin, values without parentheses, read-out: OT % inhibition @ 100% nM.

Molecules are shown by their SMILES.

By inhibition is commonly meant the drop in the measured response relative to a control, in per cent.

Regarding `COc1cccc(-c2ccc(C(=O)N3Cc4ccc(C(=O)NCCC5CCCN5C)n4Cc4ccccc43)cc2OC)c1` (stereo not drawn) [Example 172, 10-[(2,3′-Dimethoxy[1,1′-biphenyl]-4-yl)carbonyl]-N-[2-(1-methyl-2-pyrrolidinyl)ethyl]-10,11-dihydro-5H-pyrrolo[2,1-c][1,4]benzodiazepine-3-carboxamide], the inhibition at 0.1 µM is 47%. Take `COc1cccc(-c2cc(OC)c(C(=O)N3Cc4ccc(C(=O)NCCN5CCCCC5)n4Cc4ccccc43)cc2Cl)c1` [Example 156, 10-[(6-Chloro-3,3′-dimethoxy[1,1′-biphenyl]-4-yl)carbonyl]-N-[2-(1-piperidinyl)ethyl]-10,11-dihydro-5H-pyrrolo[2,1-c][1,4]benzodiazepine-3-carboxamide]: the inhibition at 0.1 µM came out at 30%. In the case of `C=CCN1CCN(C(=O)c2ccc3n2Cc2ccccc2N(C(=O)c2ccc(-c4ccccc4OC)c(OC)c2)C3)CC1` [Example 227, (4-Allyl-1-piperazinyl){10-[(2,2′-dimethoxy[1,1′-biphenyl]-4-yl)carbonyl]-10,11-dihydro-5H -pyrrolo[2,1-c][1,4]benzodiazepin-3-yl}methanone] it was 69%; in that of `COc1ccccc1-c1ccc(C(=O)N2Cc3ccc(C(=O)NCCN4CCCCC4)n3Cc3ccccc32)cc1OC` [Example 158, 10-[(2,2′-Dimethoxy[1,1′-biphenyl]-4-yl)carbonyl]-N-[2-(1-piperidinyl)ethyl]-10,11-dihydro-5H-pyrrolo[2,1-c][1,4]benzodiazepine-3-carboxamide], 50%. Take `COc1cc(-c2ccccc2C)c(Cl)cc1C(=O)N1Cc2ccc(C(=O)N(C)C3CCN(C)C3)n2Cc2ccccc21` (stereo not drawn) [Example 190, 10-[(6-Chloro-3-methoxy-2′-methyl[1,1′-biphenyl]-4-yl)carbonyl]-N-methyl-N-(1-methyl-3-pyrrolidinyl)-10,11-dihydro-5H-pyrrolo[2,1-c][1,4]benzodiazepine-3-carboxamide]: the inhibition at 0.1 µM came to 99%. As to `COc1cccc(-c2cc(OC)c(C(=O)N3Cc4ccc(C(=O)N5CCN(CCN(C)C)CC5)n4Cc4ccccc43)cc2Cl)c1` [Example 202, {10-[(6-Chloro-3,3′-dimethoxy[1,1′-biphenyl]-4-yl)carbonyl]-10,11-dihydro-5H-pyrrolo[2,1-c][1,4]benzodiazepin-3-yl}{4-[2-(dimethylamino)ethyl]-1-piperazinyl}methanone], the inhibition at 0.1 µM amounted to 73%. Consider `Cc1ccccc1-c1ccc(C(=O)N2Cc3ccc(C(=O)N(C)C4CCN(C)C4)n3Cc3ccccc32)cc1` (stereo not drawn) [Example 188, N-Methyl-10-[(2′-methyl[1,1′-biphenyl]-4-yl)carbonyl]-N-(1-methyl-3-pyrrolidinyl)-10,11-dihydro-5H-pyrrolo[2,1-c][1,4]benzodiazepine-3-carboxamide], for which the inhibition at 0.1 µM was 96%. On to `Cc1ccccc1-c1ccc(C(=O)N2Cc3ccc(C(=O)N(C)C4CCN(C)CC4)n3Cc3ccccc32)cc1` [Example 178, N-Methyl-10-[(2′-methyl[1,1′-biphenyl]-4-yl)carbonyl]-N-(1-methyl-4-piperidinyl)-10,11-dihydro-5H-pyrrolo[2,1-c][1,4]benzodiazepine-3-carboxamide], for which the inhibition at 0.1 µM amounted to 93%.

With `C=CCN1CCN(C(=O)c2ccc3n2Cc2ccccc2N(C(=O)c2ccc(-c4ccccc4C)c(OC)c2)C3)CC1` [Example 225, (4-Allyl-1-piperazinyl){10-[(2-methoxy-2′-methyl[1,1′-biphenyl]-4-yl)carbonyl]-10,11-dihydro-5H-pyrrolo[2,1-c][1,4]benzodiazepin-3-yl}methanone], the inhibition at 0.1 µM was 87%. For the compound `Cc1cc(C(=O)N2Cc3ccc(C(=O)NCCN4CCCCC4)n3Cc3ccccc32)ccc1-c1ccccc1C(F)(F)F` [Example 161, 10-{[2-Methyl-2′-(trifluoromethyl)[1,1′-biphenyl]-4-yl]carbonyl}-N-[2-(1-piperidinyl)ethyl]-10,11-dihydro-5H-pyrrolo[2,1-c][1,4]benzodiazepine-3-carboxamide], the inhibition at 0.1 µM is 53%. In the case of `COc1ccccc1-c1ccc(C(=O)N2Cc3ccc(C(=O)N4CCN(CCN5CCOCC5)CC4)n3Cc3ccccc32)cc1OC` [Example 214, {10-[(2,2′-Dimethoxy[1,1′-biphenyl]-4-yl)carbonyl]-10,11-dihydro-5H-pyrrolo[2,1-c][1,4]benzodiazepin-3-yl}{4-[2-(4-morpholinyl)ethyl]-1-piperazinyl}methanone] it was 64%.

Take `Cc1ccccc1-c1ccc(C(=O)N2Cc3ccc(C(=O)NCCC4CCCN4C)n3Cc3ccccc32)cc1C` (stereo not drawn) [Example 163, 10-[(2,2′-Dimethyl[1,1′-biphenyl]-4-yl)carbonyl]-N-[2-(1-methyl-2-pyrrolidinyl)ethyl]-10,11-dihydro-5H-pyrrolo[2,1-c][1,4]benzodiazepine-3-carboxamide]: the inhibition at 0.1 µM was found to be 82%.

Regarding `COc1cc(C(=O)N2Cc3ccc(C(=O)NCCC4CCCN4C)n3Cc3ccccc32)ccc1-c1cccc2ccccc12` (stereo not drawn) [Example 170, 10-[3-Methoxy-4-(1-naphthyl)benzoyl]-N-[2-(1-methyl-2-pyrrolidinyl)ethyl]-10,11-dihydro-5H-pyrrolo[2,1-c][1,4]benzodiazepine-3-carboxamide], the inhibition at 0.1 µM turned out to be 47%. On to `Cc1cc(C(=O)N2Cc3ccc(C(=O)N4CCN(CCN5CCOCC5)CC4)n3Cc3ccccc32)ccc1-c1ccccc1C(F)(F)F` [Example 216, (10-{[2-Methyl-2′-(trifluoromethyl)[1,1′-biphenyl]-4-yl]carbonyl}-10,11-dihydro-5H -pyrrolo[2,1-c][1,4]benzodiazepin-3-yl){4-[2-(4-morpholinyl)ethyl]-1-piperazinyl}methanone], for which the inhibition at 0.1 µM came out at 82%. With `C=CCN1CCN(C(=O)c2ccc3n2Cc2ccccc2N(C(=O)c2ccc(-c4ccccc4C)cc2)C3)CC1` [Example 224, (4-Allyl-1-piperazinyl){10-[(2′-methyl[1,1′-biphenyl]-4-yl)carbonyl]-10,11-dihydro-5H -pyrrolo[2,1-c][1,4]benzodiazepin-3-yl}methanone], the inhibition at 0.1 µM was -3%. As to `COc1cc(C(=O)N2Cc3ccc(C(=O)N(C)C4CCN(C)CC4)n3Cc3ccccc32)ccc1-c1ccccc1C` [Example 179, 10-[(2-Methoxy-2′-methyl[1,1′-biphenyl]-4-yl)carbonyl]-N-methyl-N-(1-methyl-4-piperidinyl)-10,11-dihydro-5H-pyrrolo[2,1-c][1,4]benzodiazepine-3-carboxamide], the inhibition at 0.1 µM was 93%. The figure for `COc1ccccc1-c1ccc(C(=O)N2Cc3ccc(C(=O)N(C)C4CCN(C)CC4)n3Cc3ccccc32)cc1OC` [Example 183, 10-[(2,2′-Dimethoxy[1,1′-biphenyl]-4-yl)carbonyl]-N-methyl-N-(1-methyl-4-piperidinyl)-10,11-dihydro-5H-pyrrolo[2,1-c][1,4]benzodiazepine-3-carboxamide] is 97%. With `Cc1cc(C(=O)N2Cc3ccc(C(=O)N4CCN(C(=O)OC(C)(C)C)CC4)n3Cc3ccccc32)ccc1-c1ccccc1C(F)(F)F` [Example 6, 4-[[10,11-Dihydro-10-[[2-methyl-2′-trifluoromethyl[1,1′-biphenyl]-4-yl]carbonyl]-5H-pyrrolo[2,1-c][1,4]benzodiazepin-3-yl]carbonyl]-1-piperazine-carboxylic acid, tert-butyl ester], the inhibition at 0.1 µM was 56%.
